Experiment [1] addresses T1, D(4) dopamine receptor (Homo sapiens, UniProt P21917).
T1 sequence (P21917 whole entry): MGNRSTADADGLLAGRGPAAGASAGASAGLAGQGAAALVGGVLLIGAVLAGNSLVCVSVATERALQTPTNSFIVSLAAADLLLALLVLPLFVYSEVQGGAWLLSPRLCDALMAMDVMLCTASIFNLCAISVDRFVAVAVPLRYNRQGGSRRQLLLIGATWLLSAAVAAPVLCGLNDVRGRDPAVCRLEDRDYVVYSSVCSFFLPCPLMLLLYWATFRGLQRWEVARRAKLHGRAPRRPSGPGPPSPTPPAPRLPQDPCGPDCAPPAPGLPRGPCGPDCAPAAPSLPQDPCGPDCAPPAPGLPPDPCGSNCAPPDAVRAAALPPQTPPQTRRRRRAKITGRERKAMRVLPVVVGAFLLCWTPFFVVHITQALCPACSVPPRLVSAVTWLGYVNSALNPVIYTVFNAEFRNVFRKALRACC
Kind of experiment: DRUGMATRIX: Dopamine D4.2 radioligand binding (ligand: [3H] Spiperone). It counts as cell membranes, CHO-K1, Membrane. The note with it: cho-k1; Not Active = under 50% inhibition at 10 µM.

In experiment [2] the target is Glycine receptor (Rattus norvegicus, UniProt P22771+P24524+P07727+P20781). It is filed as cell membranes, Wistar, Spinal cord, Membrane. Also: in other assays of this panel Not Active means under 50% inhibition at 10 µM.
The target in experiment [3] is Prostaglandin G/H synthase 1 (Homo sapiens, UniProt P23219). Description: biochemical. It counts as tissue-based, Platelet. The conditions noted are these: platelet.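 Also: inhibition of COX-1 enzyme activity, with arachidonic acid supplied as substrate; in other assays of this panel Not Active means under 50% inhibition at 10 µM.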
Experiment [4] has as its target T2, Alpha-1A adrenergic receptor (Rattus norvegicus, UniProt P43140).
T2 sequence (P43140 whole entry): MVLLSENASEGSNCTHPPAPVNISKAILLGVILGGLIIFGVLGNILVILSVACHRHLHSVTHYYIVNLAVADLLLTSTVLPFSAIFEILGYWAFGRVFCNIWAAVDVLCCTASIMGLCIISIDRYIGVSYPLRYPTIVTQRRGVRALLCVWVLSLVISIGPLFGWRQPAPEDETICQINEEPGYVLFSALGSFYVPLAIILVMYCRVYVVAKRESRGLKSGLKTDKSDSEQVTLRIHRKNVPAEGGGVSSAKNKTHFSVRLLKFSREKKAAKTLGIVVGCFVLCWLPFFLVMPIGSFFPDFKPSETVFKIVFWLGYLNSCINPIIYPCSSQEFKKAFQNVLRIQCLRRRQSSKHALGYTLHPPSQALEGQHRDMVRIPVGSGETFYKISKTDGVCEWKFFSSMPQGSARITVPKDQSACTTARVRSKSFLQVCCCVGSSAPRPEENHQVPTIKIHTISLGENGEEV
Description: DRUGMATRIX: Alpha-1A adrenergic receptor radioligand binding (ligand: prazosin). It is filed as cell membranes, Wistar, Submaxillary gland, Membrane. The conditions noted are these: Not Active = under 50% inhibition at 10 µM.

In experiment [5] the target is T3, Alpha-1D adrenergic receptor (Homo sapiens, UniProt P25100). Also: in other assays of this panel Not Active means under 50% inhibition at 10 µM.
T3 sequence (P25100 whole entry): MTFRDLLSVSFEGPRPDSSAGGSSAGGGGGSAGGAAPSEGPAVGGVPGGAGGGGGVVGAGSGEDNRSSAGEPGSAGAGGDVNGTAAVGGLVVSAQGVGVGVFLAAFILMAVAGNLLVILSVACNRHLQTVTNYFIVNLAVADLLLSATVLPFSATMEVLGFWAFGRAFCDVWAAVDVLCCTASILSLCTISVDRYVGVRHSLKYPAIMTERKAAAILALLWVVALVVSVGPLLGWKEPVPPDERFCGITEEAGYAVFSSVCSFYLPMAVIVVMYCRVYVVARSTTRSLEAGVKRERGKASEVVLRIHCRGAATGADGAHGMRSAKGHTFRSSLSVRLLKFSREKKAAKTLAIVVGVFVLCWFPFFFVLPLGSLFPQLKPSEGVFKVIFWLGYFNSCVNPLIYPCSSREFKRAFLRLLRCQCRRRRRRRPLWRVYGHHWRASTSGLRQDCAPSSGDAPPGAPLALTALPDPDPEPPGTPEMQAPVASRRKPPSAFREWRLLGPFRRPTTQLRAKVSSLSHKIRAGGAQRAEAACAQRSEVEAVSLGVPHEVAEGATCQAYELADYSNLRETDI
It is filed as cell membranes, HEK293, Membrane. The conditions noted are these: hek293.

Experiment [6] is described as follows: DRUGMATRIX: Sodium/nucleoside co-transporter radioligand binding (ligand: nitrobenzylthioinosine). It is filed as cell membranes, Cavia porcellus, Dunkin-Hartley, Cerebral cortex, Membrane. The conditions noted are these: Not Active = under 50% inhibition at 10 µM.
Experiment [7] has as its target Protein kinase C alpha type (Homo sapiens, UniProt P17252). It counts as cell-based. The note with it: sf9.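 Also: inhibition of PKCalpha kinase activity measured in an enzyme assay with histone as the phosphorylation substrate; in other assays of this panel Not Active means under 50% inhibition at 10 µM.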
Experiment [8] in a line: DRUGMATRIX: Phosphodiesterase PDE4 enzyme inhibition (substrate: [3H]cAMP + cAMP). The note with it: u-937; Not Active = under 50% inhibition at 10 µM.
Experiment [9] deals with T4, Calcitonin receptor (Homo sapiens, UniProt P30988).
T4 sequence (P30988 whole entry): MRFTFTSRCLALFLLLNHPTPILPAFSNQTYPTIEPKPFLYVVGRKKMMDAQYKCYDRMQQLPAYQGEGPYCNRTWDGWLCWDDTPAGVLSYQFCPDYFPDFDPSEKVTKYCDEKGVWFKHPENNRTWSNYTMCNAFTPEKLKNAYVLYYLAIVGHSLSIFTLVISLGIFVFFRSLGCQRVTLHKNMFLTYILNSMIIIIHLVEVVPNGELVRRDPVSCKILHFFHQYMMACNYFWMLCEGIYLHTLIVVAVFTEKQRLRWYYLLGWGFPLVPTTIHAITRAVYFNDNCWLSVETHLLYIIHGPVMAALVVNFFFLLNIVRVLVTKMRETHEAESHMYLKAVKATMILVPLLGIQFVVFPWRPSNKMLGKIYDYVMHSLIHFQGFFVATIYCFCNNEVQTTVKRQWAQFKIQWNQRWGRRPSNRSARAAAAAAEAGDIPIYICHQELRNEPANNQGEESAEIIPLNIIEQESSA
It counts as cell membranes, Membrane. The note with it: t47d.

Experiment [10] concerns the target T5, Cathepsin G (Homo sapiens, UniProt P08311).
T5 sequence (P08311 whole entry): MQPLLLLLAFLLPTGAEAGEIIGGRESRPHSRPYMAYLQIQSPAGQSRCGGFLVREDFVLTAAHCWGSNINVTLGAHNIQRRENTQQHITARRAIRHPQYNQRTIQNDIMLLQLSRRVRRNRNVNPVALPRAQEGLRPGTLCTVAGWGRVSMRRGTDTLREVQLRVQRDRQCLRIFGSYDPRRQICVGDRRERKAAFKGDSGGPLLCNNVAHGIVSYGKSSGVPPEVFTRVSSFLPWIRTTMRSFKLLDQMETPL
It counts as tissue-based. The conditions noted are these: neutrophil.

The target in experiment [11] is Beta-3 adrenergic receptor (Homo sapiens, UniProt P13945). Description: DRUGMATRIX: Adrenergic beta3 radioligand binding (ligand: [125I] Cyanopindolol). It counts as cell membranes, HEK293, Membrane. The note with it: hek293; Not Active = under 50% inhibition at 10 µM.
Experiment [12] deals with Epidermal growth factor receptor (Homo sapiens, UniProt P00533). Kind of experiment: DRUGMATRIX: Protein Tyrosine Kinase, EGF Receptor enzyme inhibition (substrate: Poly(Glu:Tyr)). It counts as cell-based, Insect cells. The note with it: insect cells; Not Active = under 50% inhibition at 10 µM.
Epidermal growth factor receptor, sequence (P00533 whole entry): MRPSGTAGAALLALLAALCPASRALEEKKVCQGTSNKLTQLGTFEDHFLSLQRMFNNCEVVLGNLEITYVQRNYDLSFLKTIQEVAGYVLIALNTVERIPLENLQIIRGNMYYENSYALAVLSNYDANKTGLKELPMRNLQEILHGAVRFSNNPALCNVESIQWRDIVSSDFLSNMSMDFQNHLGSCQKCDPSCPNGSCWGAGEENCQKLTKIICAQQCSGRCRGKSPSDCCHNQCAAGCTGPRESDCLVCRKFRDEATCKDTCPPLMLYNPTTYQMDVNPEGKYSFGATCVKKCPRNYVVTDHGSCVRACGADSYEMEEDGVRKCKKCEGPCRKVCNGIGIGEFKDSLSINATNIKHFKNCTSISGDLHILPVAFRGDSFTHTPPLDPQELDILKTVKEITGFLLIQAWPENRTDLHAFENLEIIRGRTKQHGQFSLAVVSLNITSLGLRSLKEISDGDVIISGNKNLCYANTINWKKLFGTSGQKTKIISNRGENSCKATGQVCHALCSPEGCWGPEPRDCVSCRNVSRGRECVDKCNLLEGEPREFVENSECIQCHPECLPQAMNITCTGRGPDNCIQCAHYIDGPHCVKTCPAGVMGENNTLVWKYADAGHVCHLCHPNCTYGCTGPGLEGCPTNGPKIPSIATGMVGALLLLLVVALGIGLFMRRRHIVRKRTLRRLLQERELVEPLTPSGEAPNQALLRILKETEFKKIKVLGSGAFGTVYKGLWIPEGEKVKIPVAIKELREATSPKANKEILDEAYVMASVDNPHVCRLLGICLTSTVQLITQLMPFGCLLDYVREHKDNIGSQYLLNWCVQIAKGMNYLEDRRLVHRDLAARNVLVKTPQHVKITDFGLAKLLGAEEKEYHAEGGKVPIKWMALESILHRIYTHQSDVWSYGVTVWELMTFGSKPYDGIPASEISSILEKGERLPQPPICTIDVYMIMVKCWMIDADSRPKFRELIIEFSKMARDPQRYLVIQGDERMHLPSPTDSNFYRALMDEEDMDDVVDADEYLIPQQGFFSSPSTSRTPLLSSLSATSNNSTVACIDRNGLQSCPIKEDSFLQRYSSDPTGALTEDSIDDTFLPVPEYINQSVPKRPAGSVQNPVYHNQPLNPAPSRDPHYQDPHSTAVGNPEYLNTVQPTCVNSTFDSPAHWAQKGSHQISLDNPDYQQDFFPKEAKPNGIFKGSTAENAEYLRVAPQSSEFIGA

Prostaglandin G/H synthase 1, sequence (P23219 whole entry): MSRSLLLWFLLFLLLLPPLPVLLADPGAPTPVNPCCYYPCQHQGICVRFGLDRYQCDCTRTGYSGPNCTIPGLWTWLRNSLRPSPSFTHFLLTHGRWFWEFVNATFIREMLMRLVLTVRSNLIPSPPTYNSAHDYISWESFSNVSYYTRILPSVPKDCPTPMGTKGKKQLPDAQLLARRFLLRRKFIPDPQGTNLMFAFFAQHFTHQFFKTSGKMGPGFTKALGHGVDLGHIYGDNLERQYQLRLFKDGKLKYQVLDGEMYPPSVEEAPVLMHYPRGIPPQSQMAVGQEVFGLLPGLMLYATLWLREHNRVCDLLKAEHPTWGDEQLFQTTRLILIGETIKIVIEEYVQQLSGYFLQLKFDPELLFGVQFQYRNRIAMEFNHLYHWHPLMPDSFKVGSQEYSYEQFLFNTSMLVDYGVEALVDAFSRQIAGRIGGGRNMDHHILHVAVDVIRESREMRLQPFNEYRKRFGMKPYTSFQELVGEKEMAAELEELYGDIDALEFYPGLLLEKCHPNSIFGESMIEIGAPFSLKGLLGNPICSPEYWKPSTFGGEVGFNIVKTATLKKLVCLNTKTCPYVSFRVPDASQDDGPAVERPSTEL
Beta-3 adrenergic receptor, sequence (P13945 whole entry): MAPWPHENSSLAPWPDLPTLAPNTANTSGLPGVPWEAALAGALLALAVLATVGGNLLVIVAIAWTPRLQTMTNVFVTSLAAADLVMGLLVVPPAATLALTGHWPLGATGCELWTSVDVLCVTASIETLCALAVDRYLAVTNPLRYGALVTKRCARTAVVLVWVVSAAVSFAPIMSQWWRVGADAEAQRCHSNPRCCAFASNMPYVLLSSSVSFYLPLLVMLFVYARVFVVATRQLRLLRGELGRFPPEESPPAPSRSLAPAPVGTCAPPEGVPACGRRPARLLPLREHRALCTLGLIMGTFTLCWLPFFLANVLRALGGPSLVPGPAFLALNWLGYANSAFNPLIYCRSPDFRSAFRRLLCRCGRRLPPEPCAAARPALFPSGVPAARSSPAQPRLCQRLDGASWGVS

With `COc1c(C)c2c(c(O)c1C/C=C(\C)CCC(=O)OCCN1CCOCC1)C(=O)OC2` [MYCOPHENOLATE MOFETIL], the IC50 entry in experiment [1], in experiment [2], in experiment [3], in experiment [4], in experiment [5] and in experiment [6] was “Not Active” in each case. Also, the half-inhibitory concentration (IC50) entry in experiment [7], in experiment [8], in experiment [9], in experiment [10], in experiment [11] and in experiment [12] was “Not Active” throughout. The Ki result in [6] and in experiment [8] was “Not Active” each time.
Take `C[C@]12Cc3c[nH]nc3C[C@@H]1CC[C@@H]1[C@@H]2CC[C@@]2(C)[C@H]1CC[C@]2(C)O` [STANOZOLOL]: the concentration for half-maximal inhibition (IC50) result in experiment [1], in experiment [2], in experiment [3], in [4], in experiment [5] and in experiment [6] was “Not Active” each time. Further, the IC50 entry in [7], in [8], in experiment [9], in [10], in experiment [11] and in experiment [12] was “Not Active” each time. In addition, the inhibitory constant (Ki) result in experiment [6] and in experiment [8] was “Not Active” in each case.
With `CC(C)(C)NCC(O)c1cc(O)cc(O)c1` (centres undefined) [TERBUTALINE], the IC50 entry in experiment [1], in experiment [2], in experiment [3], in [4], in [5] and in [6] was “Not Active” each time. The half-maximal inhibitory concentration (IC50) entry in [7], in experiment [8], in [9], in experiment [10], in experiment [11] and in experiment [12] was “Not Active” each time. For the same compound, the inhibitory constant (Ki) entry in [6] and in experiment [8] was “Not Active” each time.
Turning to `C=CC[C@@H]1/C=C(\C)C[C@H](C)C[C@H](OC)[C@H]2O[C@@](O)(C(=O)C(=O)N3CCCC[C@H]3C(=O)O[C@H](/C(C)=C/[C@@H]3CC[C@@H](O)[C@H](OC)C3)[C@H](C)[C@@H](O)CC1=O)[C@H](C)C[C@@H]2OC` [TACROLIMUS ANHYDROUS], the IC50 entry in [1], in [2], in experiment [3], in [4], in experiment [5] and in [6] was “Not Active” in each case. Besides, the IC50 result in experiment [7], in experiment [8], in experiment [9], in [10], in experiment [11] and in experiment [12] was “Not Active” in each case. For the same compound, the Ki entry in experiment [6] and in experiment [8] was “Not Active” each time.
As for `CC(=O)[C@H]1CC[C@H]2[C@@H]3CCC4=CC(=O)CC[C@]4(C)[C@H]3CC[C@]12C` [PROGESTERONE], the IC50 (as a rule, the concentration needed to halve the response being measured) is “Not Active” in experiment [1]; “Not Active” in [2]; “Not Active” in experiment [3]; “Not Active” in experiment [4]; “Not Active” in experiment [5]; 19.6 µM in experiment [6] (read-out: IC50). In addition, the IC50 entry in experiment [7], in experiment [8], in experiment [9], in experiment [10], in experiment [11] and in [12] was “Not Active” in each case. The values for the Ki in experiment [6] (read-out: Ki) and in experiment [8] were 6.7 µM and “Not Active”, respectively.
Take `CN[C@H](CC(C)C)C(=O)N[C@H]1C(=O)N[C@@H](CC(N)=O)C(=O)N[C@H]2C(=O)N[C@H]3C(=O)N[C@H](C(=O)N[C@H](C(=O)O)c4cc(O)cc(O)c4-c4cc3ccc4O)[C@H](O)c3ccc(c(Cl)c3)Oc3cc2cc(c3O[C@@H]2O[C@H](CO)[C@@H](O)[C@H](O)[C@H]2O[C@H]2C[C@](C)(N)[C@H](O)[C@H](C)O2)Oc2ccc(cc2Cl)[C@H]1O` [VANCOMYCIN]: the IC50 result in [1], in [2], in experiment [3], in experiment [4], in [5] and in experiment [6] was “Not Active” in each case. The half-maximal inhibitory concentration (IC50) entry in experiment [7], in [8], in [9], in experiment [10], in [11] and in [12] was “Not Active” in each case. The Ki entry in experiment [6] and in [8] was “Not Active” in each case.

(Values after ChEMBL document CHEMBL1909046, “DrugMatrix in vitro pharmacology data”.)
